Experiments:
[1] = Plasma pharmacokinetics of radioactivity after single intravenous dose; format: in vivo, male Sprague Dawley rats; settings: 10 mg/kg single intravenous (bolus)
Source text: (§1) The objectives of this study were to determine the plasma pharmacokinetics of [4-^14C]-25HC3S-derived radioactivity in male Sprague Dawley rats, determine the routes of elimination and excretion mass balance of [4-^14C]-25HC3S-derived radioactivity in male Sprague Dawley rats, determine the tissue distribution and tissue pharmacokinetics of [4-^14C]-25HC3S-derived radioactivity using quantitative whole body autoradiography methods in male Sprague Dawley and Long Evans rats following a single intravenous (bolus) dose, and to provide plasma, urine, and fecal homogenate samples for metabolite profiling of [4-^14C]-25HC3S-derived radioactivity.
(§2) Nine male Sprague Dawley rats (Group 1) were designated for the pharmacokinetic phase, 3 male Sprague Dawley rats (Group 2) for the excretion mass balance phase, and 7 male Sprague Dawley rats (Group 3) and 9 male Long Evans rats (Group 4) for the tissue distribution phase. All animals received a single intravenous dose of [^14C]-25HC3S at 10 mg/kg and a target radioactivity of 225 μCi/kg. Blood samples were collected from all Group 1 animals at approximately 0.083, 0.25, 0.5, 1, 2, 4, 8, 12, 24, 48, and 72 hours post-dose. Urine and feces were collected from all Group 2 animals periodically through 168 hours post-dose. […] Following blood collection, animals were euthanized by CO2 inhalation and carcasses frozen in a dry ice/hexane bath for processing by quantitative whole body autoradiography. Whole blood, plasma, urine, feces, cage rinse, and cage wash were analyzed for total radioactivity by liquid scintillation counting.

[2] = Tissue distribution by quantitative whole body autoradiography after single intravenous dose, pigmented rats; format: in vivo, male Long Evans rats; settings: 10 mg/kg intravenous
Source text: as §1
as §2, with “μCi/kg.” for “μCi/kg. Blood samples were collected from all Group 1 animals at approximately 0.083, 0.25, 0.5, 1, 2, 4, 8, 12, 24, 48, and 72 hours post-dose. Urine and feces were collected from all Group 2 animals periodically through 168 hours post-dose.”

[3] = Tissue distribution by quantitative whole body autoradiography after single intravenous dose; format: in vivo, male Sprague Dawley rats; settings: 10 mg/kg intravenous
Source text: as §1, §2

[4] = Excretion mass balance after single intravenous dose; format: in vivo, male Sprague Dawley rats; settings: 10 mg/kg intravenous, over 168 hours
Source text: as §1
as §2, with “μCi/kg.” for “μCi/kg. Blood samples were collected from all Group 1 animals at approximately 0.083, 0.25, 0.5, 1, 2, 4, 8, 12, 24, 48, and 72 hours post-dose. Urine and feces were collected from all Group 2 animals periodically through 168 hours post-dose.”

[5] = Single oral dose safety and pharmacokinetic study in NASH and healthy subjects; format: in vivo, human
Description: The present Example was a randomized, dose ranging, single dose safety and pharmacokinetic study of 25HC3S administered to subjects with NASH and control healthy subjects. […] For each cohort, 10 subjects with NASH were enrolled which were further classified into cirrhotic and non-cirrhotic. Each subject received only one dose of study treatment. The second cohort was dosed after a review of safety and tolerability data from Cohort 1.

[6] = Excretion mass balance after single oral (gavage) dose; format: in vivo, rats; settings: 75 mg/kg single oral (gavage)
[7] = Tissue distribution by quantitative whole body autoradiography after single oral (gavage) dose; format: in vivo, male Sprague Dawley rats; settings: 75 mg/kg oral
[8] = Plasma pharmacokinetics of radioactivity after single oral (gavage) dose; format: in vivo, rats; settings: 75 mg/kg single oral (gavage)
[9] = Metabolite profiling of plasma, urine and feces after intravenous dose; format: in vivo, male Sprague Dawley rats; settings: intravenous 10 mg/kg
Description: as §2

[10] = Metabolite profiling of plasma and feces after oral dose; format: in vivo, rats; settings: 75 mg/kg oral
Source text: Radiolabeled components in plasma and feces extracts were profiled and identified using radio-high performance liquid chromatography (HPLC) and high performance liquid chromatography/mass spectrometry (HPLC/MS) methods.

[11] = 50 mg single oral dose, Healthy, Geometric Mean
[12] = 50 mg single oral dose, Healthy, Mean
[13] = 50 mg single oral dose, NASH, Geometric Mean
[14] = 50 mg single oral dose, NASH, Mean
[15] = 200 mg single oral dose, Healthy, Geometric Mean
[16] = 200 mg single oral dose, Healthy, Mean
[17] = 200 mg single oral dose, NASH, Geometric Mean
[18] = 200 mg single oral dose, NASH, Mean

C[C@H](CCCC(C)(C)O)[C@H]1CC[C@H]2[C@@H]3CC=C4[14CH2][C@@H](OS(=O)(=O)O)CC[C@]4(C)[C@H]3CC[C@]12C [[4-^14C]-25HC3S]
terminal elimination phase T1/2 ([1]; plasma, PK phase): 26.6 h | mean plasma C0 ([1]; total radioactivity): 25,900 ng-equiv./g | plasma AUClast ([1]; total radioactivity): 27,900 h*ng-equiv./g | binding to pigmented or non-pigmented skin or the uveal tract [2]: no difference | plasma or whole blood concentrations versus Sprague Dawley rats ([2]; first 168 hours postdose): no substantial difference | plasma:whole blood AUClast ratio [3]: 0.79 | tissue distribution by QWBA [3]: broadly distributed and detected by quantitative whole body autoradiography in all tissues except the eye (lens) | whole blood AUClast ([3]; Group 3): 25,200 h*ng-equiv./g | T1/2 in plasma ([3]; QWBA phase): 44.3 h | T1/2 in whole blood ([3]; QWBA phase): 52.2 h | maximum plasma concentration ([3]; QWBA phase): 12,400 ng-equiv./g | tissue:plasma ratio, liver ([3]; calculated using AUClast): 11.4 | tissue:plasma ratio, small intestine (wall) ([3]; calculated using AUClast): 7.44 | AUClast in liver ([3]; radioactivity): ≤ 364,000 hng/g | dose recovered in urine, feces, and cage rinse [4]: approximately 100.2% | recovered radioactivity in feces [4]: 83.0%

C[C@H](CCCC(C)(C)O)[C@H]1CC[C@H]2[C@@H]3CC=C4C[C@@H](OS(=O)(=O)[O-])CC[C@]4(C)[C@H]3CC[C@]12C.[Na+] [25HC3S sodium]
AUC0-12 [5, 11]: 496.7 ng·h/mL | AUC0-last [5, 11]: 450.0 ng·h/mL | AUCinf [5, 11]: 423.3 ng·h/mL | CL/F [5, 11]: 118.11 L/h | Cmax [5, 11]: 90.946 ng/mL | T1/2 [5, 11]: 1.889 h | Tmax [5, 11]: 2.834 h | AUC0-12 [5, 12]: 528.0 ng·h/mL | AUC0-last [5, 12]: 477.1 ng·h/mL | AUCinf [5, 12]: 438.6 ng·h/mL | CL/F [5, 12]: 122.35 L/h | Cmax [5, 12]: 93.967 ng/mL | T1/2 [5, 12]: 1.906 h | Tmax [5, 12]: 3.008 h | AUC0-12 [5, 13]: 597.8 ng·h/mL | AUC0-last [5, 13]: 476.1 ng·h/mL | AUCinf [5, 13]: 608.3 ng·h/mL | CL/F [5, 13]: 82.19 L/h | Cmax [5, 13]: 107.627 ng/mL | T1/2 [5, 13]: 1.670 h | Tmax [5, 13]: 2.305 h | AUC0-12 [5, 14]: 623.1 ng·h/mL | AUC0-last [5, 14]: 513.3 ng·h/mL | AUCinf [5, 14]: 636.1 ng·h/mL | CL/F [5, 14]: 85.29 L/h | Cmax [5, 14]: 113.170 ng/mL | T1/2 [5, 14]: 1.674 h | Tmax [5, 14]: 2.408 h | AUC0-12 [5, 15]: 1162.8 ng·h/mL | AUC0-last [5, 15]: 1172.5 ng·h/mL | AUCinf [5, 15]: 1181.2 ng·h/mL | CL/F [5, 15]: 169.32 L/h | Cmax [5, 15]: 255.698 ng/mL | T1/2 [5, 15]: 1.719 h | Tmax [5, 15]: 2.528 h | AUC0-12 [5, 16]: 1175.9 ng·h/mL | AUC0-last [5, 16]: 1185.7 ng·h/mL | AUCinf [5, 16]: 1194.3 ng·h/mL | CL/F [5, 16]: 171.25 L/h | Cmax [5, 16]: 260.500 ng/mL | T1/2 [5, 16]: 1.753 h | Tmax [5, 16]: 2.673 h | AUC0-12 [5, 17]: 1495.2 ng·h/mL | AUC0-last [5, 17]: 1539.2 ng·h/mL | AUCinf [5, 17]: 1411.8 ng·h/mL | CL/F [5, 17]: 141.66 L/h | Cmax [5, 17]: 318.582 ng/mL | T1/2 [5, 17]: 2.196 h | Tmax [5, 17]: 2.647 h | AUC0-12 [5, 18]: 1541.0 ng·h/mL | AUC0-last [5, 18]: 1581.6 ng·h/mL | AUCinf [5, 18]: 1428.5 ng·h/mL | CL/F [5, 18]: 143.19 L/h | Cmax [5, 18]: 332.700 ng/mL | T1/2 [5, 18]: 2.511 h | Tmax [5, 18]: 2.906 h

C[C@H](CCCC(C)(C)O)[C@H]1CC[C@H]2[C@@H]3CC=C4CC(OS(=O)(=O)O)CC[C@]4(C)[C@H]3CC[C@]12C (stereo partly shown) [[^14C]-25HC3S]
dose recovered in urine, feces, and cage rinse [6]: approximately 94.5% | recovered radioactivity in feces [6]: 94.2% | plasma:whole blood AUClast ratio [7]: 1.12 | skin, thymus, prostate, and pituitary tissue concentrations [7]: < 3000 ng equiv./g | tissue Tmax [7]: ≤ 6 h | tissue distribution by QWBA [7]: broadly distributed and detected by quantitative whole body autoradiography in all tissues except the eye (lens) | uveal tract and brain concentrations [7]: approximately 1000 ng equiv./g | whole blood AUClast [7]: 127,000 h.ng equiv./g | tissue:plasma ratio, adrenal gland ([7]; calculated using AUClast): 6.64 | tissue:plasma ratio, liver ([7]; calculated using AUClast): 6.96 | tissue:plasma ratio, small intestine (wall) ([7]; calculated using AUClast): 15.4 | terminal elimination phase T1/2 [8]: 27.3 h | plasma AUClast ([8]; radioactivity): 96,400 h.ng equiv./g

desmosterol sulfate
detection in plasma, urine, or feces samples [9]: Neither desmosterol sulfate nor 25-hydroxycholesterol was detected | detection in plasma or feces samples [10]: not found

C[C@H](CCCC(C)(C)O)[C@H]1CC[C@H]2[C@@H]3CC=C4C[C@@H](O)CC[C@]4(C)[C@H]3CC[C@]12C [M29, 25-hydroxycholesterol]
detection in plasma, urine, or feces samples [9]: Neither desmosterol sulfate nor 25-hydroxycholesterol was detected | relative observed intensity (ROI) in plasma ([10]; 2 hour postdose plasma): 37% | % of total dose in feces ([10]; pools 0 to 168 hours post-dose): 1.9 % of total dose | concentration at 2 h ([10]; Sprague Dawley, rat, 2 hour postdose plasma): 1230 ng/g

— patent US20230181601A1, “TREATMENT OF NON-ALCOHOLIC STEATOHEPATITIS (NASH)” (DURECT CORPORATION, priority 2020, published 2023)
